# Measured values from patent US12384798B2, “ACC inhibitor and use thereof” (NANJING RUIJIE PHARMA CO., LTD., priority 2019, dated 2025).
# Read-outs that look alike come from different tables or passages of the source.
# Key:
# HepG2 cells = test: [2-14C]-acetate incorporation assay in HepG2 cells; assay type: cell-based; details: for IC50: Homo sapiens, HepG2 cells, read-out: IC50 [2-14C]-acetate binding assay
# Protocol: [2-^14C]-Acetate Incorporation Assay in HepG2 Cells
# DMEM (GIBCO, catalog number: 11965-092) was used as a complete culture medium for HepG2 cells (ATCC, catalog number: HB-8064). 10% fetal bovein serum (FBS, GIBCO, catalog number: 10099-141), penicillin (100 units/mL) and streptomycin (100 μg/mL) (Pen/Strep, GIBCO, catalog number: 15140-122) were added to a DMEM culture medium.
# HepG2 cells were cultured in a 37° C. incubator holding 5% carbon dioxide, and passaged every 2-3 days.
# The HepG2 cells were spread on a 24-well plate (Corning, catalog number: 3524) at a density of 2×10^5 cells-well, 500 μL per well, and cultured in a 37° C. incubator holding 5% carbon dioxide. On the fourth day of culture, 50 μL of a compound diluted at a gradient of 1:3 was added, with the final concentration of DMSO of 0.5% (v/v); and the cells were cultured for 1 hour in the incubator. 1 μCi [2-^14C]-sodium acetate (Perkin Elmer, catalog number: NEC085H001MC) was added to each well, and culture was conducted for another 5 hours. The culture medium in each well was transferred to a 15 mL centrifugal tube (BD, catalog number: 352096); 0.5 mL of 0.1 M NaOH was added; the cells were blown and washed repeatedly, and then transferred to new centrifugal tubes. Then, 1 mL of ethanol and 0.17 mL of 50% KOH solution were added to each centrifugal tube, which was then treated in a water bath at 90° C. for 1 hour. Next, the mixture was cooled to room temperature; 5 mL of petroleum ether was added to each centrifugal tube, which was turned upside down several times for mixing; the resulting mixture was centrifuged for 5 minutes (Eppendorf, Model: 5702, 1000 rpm); and an upper organic phase was discarded. 1 mL of concentrated hydrochloric acid was added to each centrifugal tube and centrifuged for 5 minutes, and 4 mL of petroleum ether was transferred into a glass tube (18×180 mm). The sample in the glass tube was dried at 64° C., and then dissolved and resuspended by addition of 400 μL of spotting solution (chloroform:n-hexane=1:1). 50 μL of the dissolved sample was drawn by a pipette (BIOHIT, Model: Proline Plus), and spotted onto an Isoplate-96-microwell plate (Perkin Elmer, catalog number: 6005040), and 200 μL of ULTIMA GOLD scintillation solution (Perkin Elmer, catalog number: 77-16061) was added, standing for 5 minutes. Finally, MicroBeta (PerkinElmer, Model: 2450) was used to read scintillation signals.
# A 4-parameter logistic model or sigmoidal dose-response model in XLFit 5.3.1.3 (2006-2011 I D Business Solutions Limited) was used to fit IC50: fit=(A+((B−A)/(1+((C/x)^D)))); where the x-axis represented the log of compound concentration, and the y-axis represented count per minute (CPM).
# ACC1 [1] = biological target: ACC1 (Homo sapiens (Human), UniProt Q13085); test: In vitro ACC inhibition assay (ADP-Glo), ACC1; assay type: biochemical; details: for IC50: 0.5 nM ACC, 10 μM ATP, 5 μM acetyl-CoA, read-out: Enzymatic activity IC50 ACC1
# Protocol: (§1) An exemplary procedure for the in vitro ACC inhibition assay, which can be used to determine the inhibitory action of the compounds of the invention toward either ACC1 or ACC2, is as follows. The ADP-Glo™ kinase assay kit from Promega was used. The ADP-Glo™ kinase assay is a luminescent ADP detection assay to measure enzymatic activity by quantifying the amount of ADP produced during an enzyme reaction. The assay was performed in two steps; first, after the enzyme reaction, an equal volume of ADP-Glo™ reagent was added to terminate the reaction and deplete the remaining ATP. Then, the kinase detection reagent was added to simultaneously convert ADP to ATP and allow the newly synthesized ATP to be measured using a luciferase/luciferin reaction. Luminescence can be correlated to ADP concentrations by using an ATP-to-ADP conversion curve. The detailed procedure was as follows. 4.5 μL of a working solution was added to a 384-well plate. The compound was diluted at 1:3 in succession in DMSO. 0.5 μL of diluted compound solution was added to a 384-well white Optiplate assay plate. The plates were incubated at room temperature for 15 minutes. 5 μL of substrate working solution was added to each well to initiate the reaction. A final ACC reaction solution consisted of: 0.5 nM ACC, 10 μM ATP, 5 μM acetyl-CoA, and 15 mM NaHCO3; and the final concentrations of the compound were measured as follows: 1 μM, 0.333 μM, 0.111 μM, 0.037 μM, 0.0123 μM, 0.00411 μM, 0.00137 μM, 0.000457 μM, 0.000152 μM, and 0.000051 μM. The plates were incubated at room temperature for 30 minutes. 10 μL of ADP-Glo™ reagent was added, and the plates were incubated at room temperature for 40 minutes. 20 μL of kinase detection reagent was added. The plates were incubated at room temperature for 40 minutes, then read on a Perkin Elmer EnVision 2104 plate reader for luminescence in relative light unit (RLU).
# (§2) Data for each concentration, as well as the positive and negative controls were averaged, and the standard deviation was calculated. Percent inhibition was calculated by the formula: 100×(average negative control−compound)/(average negative control−average positive control). The IC50 for each compound was calculated by fitting the data with a non-linear regression equation: Y=Bottom+(Top−Bottom)/(1+10^((Log IC50−X)×HillSlope)), where X is the log of compound concentration and Y is the percent inhibition.
# ACC2 [2] = biological target: ACC2 (Homo sapiens (Human), UniProt O00763); test: In vitro ACC inhibition assay (ADP-Glo), ACC2; assay type: biochemical; details: for IC50: 0.5 nM ACC, 10 μM ATP, 5 μM acetyl-CoA, read-out: Enzymatic activity IC50 ACC2
# ACC2 (Homo sapiens (Human), UniProt O00763), sequence (O00763 whole entry, species assumed): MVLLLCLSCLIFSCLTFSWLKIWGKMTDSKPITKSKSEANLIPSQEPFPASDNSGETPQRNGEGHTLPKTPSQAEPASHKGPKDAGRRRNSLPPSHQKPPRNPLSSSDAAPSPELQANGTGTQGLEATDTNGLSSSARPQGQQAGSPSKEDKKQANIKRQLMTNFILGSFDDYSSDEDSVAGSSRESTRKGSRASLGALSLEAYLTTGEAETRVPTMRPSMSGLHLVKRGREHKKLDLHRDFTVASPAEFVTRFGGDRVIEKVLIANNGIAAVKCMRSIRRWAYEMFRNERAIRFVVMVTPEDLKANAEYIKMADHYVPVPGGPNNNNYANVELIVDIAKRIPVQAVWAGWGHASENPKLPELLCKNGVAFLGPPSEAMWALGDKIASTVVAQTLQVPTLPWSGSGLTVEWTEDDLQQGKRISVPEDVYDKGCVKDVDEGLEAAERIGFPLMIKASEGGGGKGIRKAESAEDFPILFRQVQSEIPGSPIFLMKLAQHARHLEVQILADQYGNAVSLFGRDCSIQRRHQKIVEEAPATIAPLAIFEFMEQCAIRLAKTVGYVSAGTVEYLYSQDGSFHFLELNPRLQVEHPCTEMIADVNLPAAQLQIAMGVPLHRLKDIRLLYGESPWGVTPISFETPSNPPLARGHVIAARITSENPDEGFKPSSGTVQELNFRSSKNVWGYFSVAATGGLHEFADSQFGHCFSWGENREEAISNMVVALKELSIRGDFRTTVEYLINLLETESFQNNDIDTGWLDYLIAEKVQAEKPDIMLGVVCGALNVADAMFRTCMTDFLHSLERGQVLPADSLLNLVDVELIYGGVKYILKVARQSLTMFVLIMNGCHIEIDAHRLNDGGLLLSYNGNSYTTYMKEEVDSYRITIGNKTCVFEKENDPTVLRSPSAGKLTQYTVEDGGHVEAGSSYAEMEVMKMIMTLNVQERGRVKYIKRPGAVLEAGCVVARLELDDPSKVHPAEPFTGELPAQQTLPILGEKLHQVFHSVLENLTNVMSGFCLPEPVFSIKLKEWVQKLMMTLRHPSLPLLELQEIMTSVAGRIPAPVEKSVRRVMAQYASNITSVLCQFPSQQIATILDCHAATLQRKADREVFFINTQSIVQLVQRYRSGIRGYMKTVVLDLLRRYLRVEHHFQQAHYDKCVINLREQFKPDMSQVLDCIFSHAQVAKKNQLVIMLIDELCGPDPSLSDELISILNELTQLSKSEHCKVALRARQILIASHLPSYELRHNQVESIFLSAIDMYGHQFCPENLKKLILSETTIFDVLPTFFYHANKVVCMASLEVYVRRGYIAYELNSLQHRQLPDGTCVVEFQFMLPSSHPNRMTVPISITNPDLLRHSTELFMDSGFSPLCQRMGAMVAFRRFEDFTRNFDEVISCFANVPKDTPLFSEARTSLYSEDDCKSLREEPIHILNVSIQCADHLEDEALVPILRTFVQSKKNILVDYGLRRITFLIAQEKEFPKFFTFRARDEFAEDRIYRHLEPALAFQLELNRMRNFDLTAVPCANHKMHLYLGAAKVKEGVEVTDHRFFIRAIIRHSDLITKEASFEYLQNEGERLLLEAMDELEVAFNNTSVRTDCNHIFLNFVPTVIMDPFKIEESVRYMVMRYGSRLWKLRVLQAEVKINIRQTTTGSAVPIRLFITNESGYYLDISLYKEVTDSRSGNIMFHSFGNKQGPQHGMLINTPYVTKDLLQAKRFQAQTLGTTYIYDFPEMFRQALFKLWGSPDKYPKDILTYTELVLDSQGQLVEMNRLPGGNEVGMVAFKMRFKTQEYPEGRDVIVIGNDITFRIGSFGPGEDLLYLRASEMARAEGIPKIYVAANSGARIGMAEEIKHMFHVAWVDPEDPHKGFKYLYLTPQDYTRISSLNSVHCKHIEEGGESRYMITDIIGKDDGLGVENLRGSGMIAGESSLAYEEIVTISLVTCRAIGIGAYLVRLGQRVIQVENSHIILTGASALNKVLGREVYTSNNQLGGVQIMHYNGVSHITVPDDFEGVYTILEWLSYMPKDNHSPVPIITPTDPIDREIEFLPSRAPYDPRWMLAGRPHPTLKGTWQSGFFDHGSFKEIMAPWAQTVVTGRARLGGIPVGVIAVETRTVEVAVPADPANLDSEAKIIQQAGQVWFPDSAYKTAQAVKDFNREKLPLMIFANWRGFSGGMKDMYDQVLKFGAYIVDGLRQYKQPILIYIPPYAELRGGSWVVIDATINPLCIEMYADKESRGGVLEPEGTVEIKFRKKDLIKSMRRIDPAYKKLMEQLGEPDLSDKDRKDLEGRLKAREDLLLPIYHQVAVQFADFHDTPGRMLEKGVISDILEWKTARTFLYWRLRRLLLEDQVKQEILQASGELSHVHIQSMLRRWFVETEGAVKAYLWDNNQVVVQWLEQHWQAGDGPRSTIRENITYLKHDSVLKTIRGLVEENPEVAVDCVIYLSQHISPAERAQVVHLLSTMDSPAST
# Protocol: as §1, §2
# [3] = Pharmacokinetic evaluation of compounds in rats; assay type: in vivo; details: SD rats; for Kp / Vd / AUC(0-inf) / Cmax / Tmax / half-life / bioavailability: male, rat; for Kp: liver/plasma, liver collected 1 h, 3 h and 24 h after dosage, read-out: L/P liver-to-blood ratio; for Vd / AUC(0-inf) / Cmax / Tmax / half-life / bioavailability: plasma; for Vd: intravenous, 2 mg/kg, read-out: Vss; for bioavailability: read-out: F (%) bioavailability
# Excerpt: This example was intended to investigate the pharmacokinetics of the compounds of the present invention and ND630 in SD rats under the conditions of intravenous (iv) and intragastric administration (po). Unless otherwise stated, the experimental reagents and instruments are all commercially available. ND630 was Gilead's acetyl CoA carboxylase (ACC) inhibitor, with a structural formula as follows: […]
# Formulation of compound: by taking a physiological saline solution of 5% DMSO+5% Solutol HS 15+90% HP-β-CD (20% w/v) as a solvent, a compound with the final concentration of 0.4 mg/mL was formulated for intravenous administration and a compound with the final concentration of 1 mg/mL was formulated for orally intragastric administration.
# Animal feeding and management: male SD rats aged 6-8 weeks and weighing between 180-250 g were selected and raised in transparent resin plastic rate cages. Before administration, the rats were fasted overnight for at least 16 hours, and the feed supply was restored 4 hours after administration.
# For the intravenous injection administration group, the dose was 2 mg/kg, and 0.2 mL of blood samples was collected from the jugular vein 5 min, 15 min, 30 min, 1 h, 3 h, 5 h, and 8 h after dosage. For the orally intragastric administration group, the dose was 10 mg/kg, and 0.2 mL of blood samples was collected from the jugular vein 15 min, 30 min, 1 h, 3 h, 5 h, 8 h, 12 h, and 24 h after dosage; and liver tissues were collected 1 h, 3 hand 24 h after dosage.
# After the blood were sampled, the plasma was quickly separated by centrifugation at 4000 rpm (10 minutes, 4° C.). After the liver tissues were sampled, a mixture of methanol:water (1:1, v/v) three times the volume of the liver tissues was added to prepare a homogenate. 50 μL of plasma or homogenate sample was drawn, and 200 μL of an internal standard (30 ng/mL terfenadine, and acetonitrile) was added for precipitation. Centrifuging was carried out at 4° C. and 15,400 g for 10 minutes, and a supernatant was taken for analysis.
# The concentration of a target compound was detected by LC-MS/MS. According to the plasma concentration-time curve, pharmacokinetic parameters were calculated by using a non-compartmental model (NCA) of software WinNonlin 7.0. […] Table 4. Pharmacokinetic results
# ACC1 [4] = details: ACC isolated from rat, mouse, monkey and human; cited from earlier work
# ACC2 [5] = details: ACC isolated from rat, mouse, monkey and human; cited from earlier work
# [6] = iv 2 mg/kg, read-out: AUC0-∞ (iv)
# [7] = iv 2 mg/kg, read-out: Cmax (iv)
# [8] = iv 2 mg/kg, read-out: Tmax (iv)
# [9] = iv 2 mg/kg, read-out: t1/2 (iv) (converted)
# [10] = po 10 mg/kg, read-out: AUC0-∞ (po)
# [11] = po 10 mg/kg, read-out: Cmax (po)
# [12] = po 10 mg/kg, read-out: Tmax (po)
# [13] = po 10 mg/kg, read-out: t1/2 (po) (converted)
Structure (SMILES),IC50 (HepG2 cells),inhibitory properties against ACC1 (in words) (ACC1 [1]),IC50 (ACC1 [1]),inhibitory properties against ACC2 (in words) (ACC2 [2]),IC50 (ACC2 [2]),inhibitory properties against HepG2 cells (in words) (HepG2 cells),Cl [3],Kp ([3]; po 10 mg/kg),Vd [3],"AUC(0-inf) [3, 6]","Cmax [3, 7]","Tmax [3, 8]","half-life [3, 9]","AUC(0-inf) [3, 10]","Cmax [3, 11]","Tmax [3, 12]","half-life [3, 13]","bioavailability ([3]; po 10 mg/kg, iv 2 mg/kg)",IC50 (ACC1 [4]),IC50 (ACC2 [5])
"COc1ccccc1[C@H](Cn1c(=O)n(CC2CC(C(=O)O)C2)c(=O)c2c(C)c(-c3ncco3)sc21)OC1CCOCC1 (stereo partly drawn) [c-1, (R)-3-((1-(2-(2-methoxyphenyl)-2-((tetrahydro-2H-pyran-4-yl)oxy)ethyl)-5-methyl-6-(oxazol-2-yl)-2,4-dioxa-1,4-dihydrothieno[2,3-d]pyrimidine-3(2H)-yl)methyl)cyclobutane-1-carboxylic acid]",232 nM,,,,,,,,,,,,,,,,,,,
"COc1ccccc1[C@H](Cn1c(=O)n([C@H]2C[C@@H](CC(=O)O)C2)c(=O)c2c(C)c(-c3ncco3)sc21)OC1CCOCC1 [c-3-2, 2-((1S,3s)-3-(1-((R)-2-(2-methoxyphenyl)-2-((tetrahydro-2H-pyran-4-yl)oxy)ethyl)-5-methyl-6-(oxazol-2-yl)-2,4-dioxo-1,2-dihydrothieno[2,3-d]pyrimidine-3(4H)-yl)cyclobutyl)acetic acid]",18 nM,good inhibitory properties,1.12 nM,good inhibitory properties,8 nM,good inhibitory properties,1500 mL/h/kg,20.6 to 30,0.839 L/kg,1390 ng·h/mL,3110 ng/mL,5 min,54 min,4350 ng·h/mL,3240 ng/mL,24 min,289 min,62.3%,,
"COc1ccccc1[C@H](Cn1c(=O)n(C(C)(C)C(=O)O)c(=O)c2c(C)c(-c3ncco3)sc21)OC1CCOCC1 [ND630, reference compound]",,,,,,,735 mL/h/kg,5.5 to 41.9,0.48 L/kg,2870 ng·h/mL,5630 ng/mL,4.98 min,63.6 min,5090 ng·h/mL,2880 ng/mL,24 min,39 min,35.8%,,
"COc1ccccc1[C@H](Cn1c(=O)n([C@H]2C[C@H](CC(=O)O)C2)c(=O)c2c(C)c(-c3ncco3)sc21)OC1CCOCC1 [c-3-1, 2-((1R,3r)-3-(1-((R)-2-(2-methoxyphenyl)-2-((tetrahydro-2H-pyran-4-yl)oxy)ethyl)-5-methyl-6-(oxazol-2-yl)-2,4-dioxo-1,2-dihydrothieno[2,3-d]pyrimidine-3(4H)-yl)cyclobutyl)acetic acid]",13.1 nM,good inhibitory properties,0.836 nM,good inhibitory properties,9 nM,good inhibitory properties,642 mL/h/kg,9.46 to 17.3,0.826 L/kg,3120 ng·h/mL,4100 ng/mL,5 min,104 min,15700 ng·h/mL,7780 ng/mL,30 min,279 min,99.6%,,
O=C(c1c2ccccc2cc2ccccc12)N1CCC(N2CCC[C@@H](C(=O)N3CCOCC3)C2)CC1 [CP-640186],,,,,,,,,,,,,,,,,,,~60 nM,~60 nM
"COc1ccccc1[C@H](Cn1c(=O)n(C2CC(CC(=O)O)C2)c(=O)c2c(C)c(-c3ncco3)sc21)OC1CCOCC1 (stereo partly drawn) [c-3, (R)-2-(3-(1-(2-(2-methoxyphenyl)-2-((tetrahydro-2H-pyran-4-yl)oxy)ethyl)-5-methyl-6-(oxazol-2-yl)-2,4-dioxo-1,4-dihydrothieno[2,3-d]pyrimidine-3(2H)-yl)cyclobutyl)acetic acid]",18.5 nM,good inhibitory properties,0.688 nM,good inhibitory properties,3 nM,good inhibitory properties,,,,,,,,,,,,,,
